In patent publication US20180263996A1, “ARYL SULTAM DERIVATIVES AS RORc MODULATORS” (Genentech, Inc., priority 2015, published 2018):

Molecular target: T1, RORc (Homo sapiens, UniProt P51449)
T1 construct: host or cells: E. coli
T1 sequence (P51449 269-508 limits assumed): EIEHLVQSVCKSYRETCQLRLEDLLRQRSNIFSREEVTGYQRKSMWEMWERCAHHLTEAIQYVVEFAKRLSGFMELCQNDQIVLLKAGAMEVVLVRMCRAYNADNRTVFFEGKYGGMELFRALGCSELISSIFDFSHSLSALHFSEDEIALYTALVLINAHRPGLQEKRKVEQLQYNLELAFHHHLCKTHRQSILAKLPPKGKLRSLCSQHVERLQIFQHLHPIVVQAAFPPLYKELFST
Assay: In Vitro RORc Ligand Binding Assay
Details: IC50 values for RORc
Method: This assay was used to determine a compound's potency in inhibiting activity of RORc by determining, Kiapp, IC50, or percent inhibition values.
On day of the assay, 100 uL of 0.05% CHAPS (in deionized H2O) was added to all wells of the GFB Unifilter plate and allowed soak for 1 h. A wash buffer of 50 mM HEPES (pH 7.4), 150 mM NaCl, and 5 mM MgCl2 was prepared to wash the filter plate. To prepare an assay buffer, BSA was added to the wash buffer to reach 0.01% and DTT was added to reach 1 mM.
The 20× compound stocks were diluted in DMSO with Assay Buffer 4-fold to reach 5× the final test concentration in 25% DMSO (10 uL compound+30 uL Assay Buffer). Solutions were mixed by aspiration several times with a pipette set on 50 uL volume.
For two point screening, 10 mM stock compound solutions were diluted in DMSO to obtain 200 uM (20× the high test concentration) and then diluted 10-fold further to reach 20 uM (20× the low test concentration). The 20× stocks were diluted 4-fold with Assay Buffer (10 uL compound+30 uL Assay Buffer) to reach 5× the test concentrations (50 uM and 5 uM) and 10 uL were added to two assay plates for the duplicate wells. With each concentration tested on 2 plates, each set of 80 compounds used 4 assay plates (1 uM and 10 uM, with n=2).
For 25-hydroxycholesterol in 25% DMSO/75% Assay Buffer; 10 uL per well was used for NSB samples. Wells for Total Binding and No Receptor sample determination contained 10 uL of 25% DMSO/75% Assay Buffer per well.
Add 20 uL to all wells to reach 6 nM final concentration in the assay.
Stock receptor solution was diluted in assay buffer to obtain 1.5 ug/mL in Assay Buffer. 20 uL was added to all wells. For No Receptor samples, 20 uL Assay Buffer was substituted for receptor solution.
Assay plates were 96-well polypropylene V-bottom plates. […] 10 uL of 25% DMSO/75% Assay Buffer was added to Total Binding or No Receptor wells. 10 uL of 5 uM 25-hydroxycholesterol in 25% DMSO/75% Assay Buffer was added to NSB wells. […] 20 uL of 1.5 ug/mL RORc receptor was added to wells (or 40 uL Assay Buffer to No R wells). Following addition to the wells, the plates were incubated 3 h at 25° C.
Using a Packard Filtermate Harvester, the filter plate were washed 4 times following transfer of the incubated samples. Plates were dry-filtered completely (2 h at 50° C. or overnight at room temperature). 50 uL Microscint 0 was added to all wells and read on Topcount protocol Inverted.
Final concentrations were as follows: 50 mM HEPES buffer (pH 7.4); 150 mM NaCl; 1 mM DTT; 5 mM MgCl2; 0.01% BSA; 5% DMSO; 0.6 ug/mL RORc receptor; 6 nM 25-[^3H]hydroxycholesterol. For NSB wells, 1 uM 25-hydroxycholesterol was also present.

IC50	SMILES
11 nM	CC(NC(=O)c1ccno1)c1cc(F)c(CN2[C@@H](C)CC[C@H](c3ccccc3)S2(=O)=O)cc1F (stereo in doubt) [Compound 55, N-[1-[2,5-difluoro-4-[[(3S,6R)-3-methyl-1,1-dioxo-6-phenyl-thiazinan-2-yl]methyl]phenyl]ethyl]isoxazole-5-carboxamide]
20 nM	CNC(=C[N+](=O)[O-])NC(C)c1cc(F)c(CN2C(C)CCC(c3ccccc3)S2(=O)=O)cc1F [Compound 28, N1′-[1-[2,5-difluoro-4-[[(3S,6R)-3-methyl-1,1-dioxo-6-phenyl-thiazinan-2-yl]methyl]phenyl]ethyl]-N1-methyl-2-nitro-ethene-1,1-diamine]
42.9 nM	C[C@H]1CC[C@H](c2ccccc2)S(=O)(=O)N1Cc1ccc(C2(C(=O)NC3(CO)CC3)CCOCC2)cc1F [Compound 35, 4-[3-fluoro-4-[[(3S,6R)-3-methyl-1,1-dioxo-6-phenyl-thiazinan-2-yl]methyl]phenyl]-N-[1-(hydroxymethyl)cyclopropyl] tetrahydropyran-4-carboxamide]
21.7 nM	C[C@H]1CC[C@H](c2ccccc2)S(=O)(=O)N1Cc1cc(F)c(C23CC(C)(C2)OC3=O)cc1F [Compound 27, 4-[2,5-difluoro-4-[[(3S,6R)-3-methyl-1,1-dioxo-6-phenyl-thiazinan-2-yl]methyl]phenyl]-1-methyl-2-oxabicyclo[2.1.1]hexan-3-one]
54.5 nM	Cc1nocc1C(=O)NC(C)c1cc(F)c(CN2[C@@H](C)CC[C@H](c3ccccc3)S2(=O)=O)cc1F (stereo in doubt) [Compound 60, N-[1-[2,5-difluoro-4-[[(3S,6R)-3-methyl-1,1-dioxo-6-phenyl-thiazinan-2-yl]methyl]phenyl]ethyl]-3-methyl-isoxazole-4-carboxamide]
83.3 nM	CC(NC(=O)c1cc[nH]n1)c1cc(F)c(CN2[C@@H](C)CC[C@H](c3ccccc3)S2(=O)=O)cc1F (stereo in doubt) [Compound 68, N-[1-[2,5-difluoro-4-[[(3S,6R)-3-methyl-1,1-dioxo-6-phenyl-thiazinan-2-yl]methyl]phenyl]ethyl]-1H-pyrazole-3-carboxamide]
31 nM	C[C@H]1CC[C@H](c2ccccc2)S(=O)(=O)N1Cc1cc(F)c([C@@H](CC2COC2)C(N)=O)cc1F [Compound 5, (2R)-2-[2,5-difluoro-4-[[(3S,6R)-3-methyl-1,1-dioxo-6-phenyl-thiazinan-2-yl]methyl]phenyl]-3-(oxetan-3-yl)propanamide]
129 nM	C[C@H]1CC[C@H](c2ccccc2)S(=O)(=O)N1Cc1ccc(C2(C(=O)NC3CC3)CCOCC2)cc1F [Compound 30, N-cyclopropyl-4-[3-fluoro-4-[[(3S,6R)-3-methyl-1,1-dioxo-6-phenyl-thiazinan-2-yl]methyl]phenyl]tetrahydropyran-4-carboxamide]
6.8 nM	C[C@H]1CC[C@H](c2ccccc2)S(=O)(=O)N1Cc1cc(F)c(C2(OCC(=O)NC3CC3)CCOCC2)cc1F [Compound 41, N-cyclopropyl-2-[4-[2,5-difluoro-4-[[(3S,6R)-3-methyl-1,1-dioxo-6-phenyl-thiazinan-2-yl]methyl]phenyl]tetrahydropyran-4-yl]oxy-acetamide]
14 nM	CC(NC(=O)c1cnn(C)c1)c1cc(F)c(CN2[C@@H](C)CC[C@H](c3ccccc3)S2(=O)=O)cc1F (stereo in doubt) [Compound 61, N-[1-[2,5-difluoro-4-[[(3S,6R)-3-methyl-1,1-dioxo-6-phenyl-thiazinan-2-yl]methyl]phenyl]ethyl]-1-methyl-pyrazole-4-carboxamide]
13.6 nM	C[C@H]1CC[C@H](c2ccccc2)S(=O)(=O)N1Cc1ccc(C2(C(=O)NC3CC(O)C3)CCOCC2)cc1F (stereo partly drawn) [Compound 34, 4-[3-fluoro-4-[[(3S,6R)-3-methyl-1,1-dioxo-6-phenyl-thiazinan-2-yl]methyl]phenyl]-N-(3-hydroxycyclobutyl)tetrahydropyran-4-carboxamide]
3 nM	CC(NC(=O)c1csnn1)c1cc(F)c(CN2[C@@H](C)CC[C@H](c3ccccc3)S2(=O)=O)cc1F (stereo in doubt) [Compound 79, N-[1-[2,5-difluoro-4-[[(3S,6R)-3-methyl-1,1-dioxo-6-phenyl-thiazinan-2-yl]methyl]phenyl]ethyl]thiadiazole-4-carboxamide]
4.7 nM	C[C@H]1CC[C@H](c2ccccc2)S(=O)(=O)N1Cc1cc(F)c([C@]2(C(N)=O)C[C@](C)(O)C2)cc1F [Compound 48, 1-[2,5-difluoro-4-[[(3S,6R)-3-methyl-1,1-dioxo-6-phenyl-thiazinan-2-yl]methyl]phenyl]-3-hydroxy-3-methyl-cyclobutanecarboxamide]
6.5 nM	Cc1cc(C(=O)NC(C)c2cc(F)c(CN3[C@@H](C)CC[C@H](c4ccccc4)S3(=O)=O)cc2F)on1 (stereo in doubt) [Compound 67, N-[1-[2,5-difluoro-4-[[(3S,6R)-3-methyl-1,1-dioxo-6-phenyl-thiazinan-2-yl]methyl]phenyl]ethyl]-3-methyl-isoxazole-5-carboxamide]
39.4 nM	C[C@H]1CC[C@H](c2ccccc2)S(=O)(=O)N1Cc1cc(F)c([C@@]23C[C@@H]2COC3=O)cc1F [Compound 43, (1R,5S)-1-[2,5-difluoro-4-[[(3S,6R)-3-methyl-1,1-dioxo-6-phenyl-thiazinan-2-yl]methyl]phenyl]-3-oxabicyclo[3.1.0]hexan-2-one]
101 nM	CC(NC(=O)Cc1cnoc1)c1cc(F)c(CN2[C@@H](C)CC[C@H](c3ccccc3)S2(=O)=O)cc1F (stereo partly drawn) [Compound 52, N-[1-[2,5-difluoro-4-[[(3S,6R)-3-methyl-1,1-dioxo-6-phenyl-thiazinan-2-yl]methyl]phenyl]ethyl]-2-isoxazol-4-yl-acetamide]
107 nM	Cc1cc(C(=O)NC(C)c2cc(F)c(CN3[C@@H](C)CC[C@H](c4ccccc4)S3(=O)=O)cc2F)[nH]n1 (stereo in doubt) [Compound 56, N-[1-[2,5-difluoro-4-[[(3S,6R)-3-methyl-1,1-dioxo-6-phenyl-thiazinan-2-yl]methyl]phenyl]ethyl]-3-methyl-1H-pyrazole-5-carboxamide]
83.5 nM	C[C@H]1CC[C@H](c2ccccc2)S(=O)(=O)N1Cc1ccc(C2(C(=O)NCC3CC3)CCOCC2)cc1F [Compound 31, N-(cyclopropylmethyl)-4-[3-fluoro-4-[[(3S,6R)-3-methyl-1,1-dioxo-6-phenyl-thiazinan-2-yl]methyl]phenyl]tetrahydropyran-4-carboxamide]
8.3 nM	CC(NC(=O)c1cncnc1)c1cc(F)c(CN2[C@@H](C)CC[C@H](c3ccccc3)S2(=O)=O)cc1F (stereo in doubt) [Compound 63, N-[1-[2,5-difluoro-4-[[(3S,6R)-3-methyl-1,1-dioxo-6-phenyl-thiazinan-2-yl]methyl]phenyl]ethyl]pyrimidine-5-carboxamide]
64.2 nM	C[C@H]1CC[C@H](c2ccccc2)S(=O)(=O)N1Cc1cc(F)c([C@H](OC2CCOCC2)C(N)=O)cc1F [Compound 7, (2S)-2-[2,5-difluoro-4-[[(3S,6R)-3-methyl-1,1-dioxo-6-phenyl-thiazinan-2-yl]methyl]phenyl]-2-tetrahydropyran-4-yloxy-acetamide]
